Values after ≈ are worked out from the molar mass of the structure shown.
Experiments:
P. multocida = assay: Murine P. multocida intranasal challenge study, survival; assay type: in vivo; conditions: 5×10^3 CFU/mouse
Protocol: In one murine P. multocida intranasal challenge study, mice were administered tulathromycin (16 mg/kg; T02), M9 (32 mg/kg; T03), or ceftiofur (9 mg/kg; T04) by subcutaneous injection 18 hours after bacterial challenge (5×10^3 CFU/mouse) for lung tissue RNA sequence analysis. Survival at Day 7 was about 80%, 50%, and 90% for T02, T03, and T04, respectively, compared to placebo at 0%. Differential gene expression from total lung tissue RNA sequence analysis indicated at least 226 unique genes were up or down regulated (with significance) for T03. Output from ingenuity pathway analysis of these unique genes predicted major upstream regulators of the involved pathways. Data was analyzed based on the number of genes being modulated in the same direction that were associated with a given upstream regulator. An activation z-score of 2 or greater is considered significant and the direction change is indicated by + (activated) or − (inhibited). The top 5 pathways included: IL-9 signaling, glucocorticoid receptor signaling, prolactin signaling, JAK STAT signaling, and IL-17 signaling. The top 6 upstream regulators (activation z-score) included: lipopolysaccharide (−6.725), TNF (−4.669), IFNγ (−5.759), IL-1ß (−5.947), STAT1 (−2.787), and poly rI:rC-RNA (−5.289). Even though this study was run in the murine model, the top upstream regulators identified as being modulated by M9 include an almost ubiquitous overlap with the pathways identified in the natural disease study as being key mediators in BRD, and therefore is modulating highly relevant pathways in BRD pathobiology.

S. aureus = assay: MIC, S. aureus; conditions: Staphylococcus aureus
[1] = test system: M. haemolytica (strain: OSU-012103-BHI); assay: Bovine M. haemolytica intratracheal lung challenge model; conditions: bovine M. haemolytica challenge

CO/N=C(\C(=O)N[C@@H]1C(=O)N2C(C(=O)O)=C(CSC(=O)c3ccco3)CS[C@H]12)c1csc(N)n1 [ceftiofur]
Survival at Day 7 (P. multocida; 9 mg/kg (T04) subcutaneous 18 hours after challenge): ~90%

CCCNC[C@]1(O)[C@H](C)O[C@@H](O[C@H]2[C@H](C)[C@@H](O[C@@H]3O[C@H](C)C[C@H](N(C)C)[C@H]3O)[C@](C)(O)C[C@@H](C)CN[C@H](C)[C@@H](O)[C@](C)(O)[C@@H](CC)OC(=O)[C@@H]2C)C[C@@]1(C)OC [tulathromycin, (2R,3S,4R,5R,8R,10R,11R,12S,13S,14R)-11-(((2S,3R,4S,6R)-4-(dimethylamino)-3-hydroxy-6-methyltetrahydro-2H-pyran-2-yl)oxy)-2-ethyl-3,4,10-trihydroxy-13-(((2R,4R,5S,6S)-5-hydroxy-4-methoxy-4,6-dimethyl-5-((propylamino)methyl)tetrahydro-2H-pyran-2-yl)oxy)-3,5,8,10,12,14-hexamethyl-1-oxa-6-azacyclopentadecan-15-one]
Survival at Day 7 (P. multocida; 16 mg/kg (T02) subcutaneous 18 hours after challenge): about 80%
MIC (S. aureus): 8 µg/mL (≈ 9.92 µM)
IL-6 levels [1]: significantly reduced
